Measured values from patent US11524963B2, “Substituted pyrazolo[3,4-d]pyrimidines as RET kinase inhibitors” (Array Biopharma Inc., priority 2018, dated 2022).
Counter-ions that a name gives are not always drawn.

How the values were obtained:
Format in all cases: biochemical
[1] = biological target: RET kinase G810R (Homo sapiens, UniProt P07949, G810R); experiment: RET Enzyme Assay (HTRF KinEASE-TK), G810R
[2] = biological target: RET kinase M918T (Homo sapiens, UniProt P07949, M918T); experiment: RET Enzyme Assay (HTRF KinEASE-TK), M918T
[3] = biological target: RET kinase Wild Type (Homo sapiens, UniProt P07949); experiment: RET Enzyme Assay (HTRF KinEASE-TK), Wild Type
[4] = biological target: RET kinase V804M (Homo sapiens, UniProt P07949, V804M); experiment: RET Enzyme Assay (HTRF KinEASE-TK), V804M
[5] = biological target: RET kinase G810S (Homo sapiens, UniProt P07949, G810S); experiment: RET Enzyme Assay (HTRF KinEASE-TK), G810S
Sequence of RET kinase G810S (P07949 29-1114 G810S): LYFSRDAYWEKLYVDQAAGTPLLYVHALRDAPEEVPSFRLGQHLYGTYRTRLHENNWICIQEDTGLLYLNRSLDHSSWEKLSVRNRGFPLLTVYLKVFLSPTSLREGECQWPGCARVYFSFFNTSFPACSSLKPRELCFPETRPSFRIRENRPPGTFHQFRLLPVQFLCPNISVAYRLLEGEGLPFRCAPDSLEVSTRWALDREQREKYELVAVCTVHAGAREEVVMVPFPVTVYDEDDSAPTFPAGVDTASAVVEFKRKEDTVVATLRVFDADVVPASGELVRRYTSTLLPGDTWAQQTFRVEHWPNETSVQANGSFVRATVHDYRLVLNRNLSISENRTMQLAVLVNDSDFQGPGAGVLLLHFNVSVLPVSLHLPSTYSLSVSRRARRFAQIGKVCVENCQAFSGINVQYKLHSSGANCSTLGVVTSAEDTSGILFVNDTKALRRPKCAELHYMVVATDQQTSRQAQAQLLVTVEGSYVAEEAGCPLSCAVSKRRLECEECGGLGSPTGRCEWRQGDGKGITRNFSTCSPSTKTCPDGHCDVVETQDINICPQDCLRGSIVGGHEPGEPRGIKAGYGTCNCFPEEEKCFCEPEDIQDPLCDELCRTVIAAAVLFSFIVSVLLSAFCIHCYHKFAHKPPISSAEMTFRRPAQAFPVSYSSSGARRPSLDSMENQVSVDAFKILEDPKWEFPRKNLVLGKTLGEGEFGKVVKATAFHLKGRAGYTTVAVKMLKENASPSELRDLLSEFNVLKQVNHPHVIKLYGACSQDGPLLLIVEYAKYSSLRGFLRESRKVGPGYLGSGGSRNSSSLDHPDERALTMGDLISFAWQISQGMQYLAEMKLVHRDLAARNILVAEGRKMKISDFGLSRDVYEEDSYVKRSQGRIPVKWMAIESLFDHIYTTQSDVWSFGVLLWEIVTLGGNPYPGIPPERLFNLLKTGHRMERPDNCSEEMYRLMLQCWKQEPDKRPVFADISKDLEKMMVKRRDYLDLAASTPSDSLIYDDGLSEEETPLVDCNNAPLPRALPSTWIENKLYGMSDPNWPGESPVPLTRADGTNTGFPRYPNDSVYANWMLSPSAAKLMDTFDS

Sequence of RET kinase G810R (P07949 29-1114 G810R): as the sequence (P07949 29-1114 G810S) above, with S782R counted along it
Sequence of RET kinase M918T (P07949 29-1114 M918T): as the sequence (P07949 29-1114 G810S) above, with S782G, M890T counted along it
Sequence of RET kinase Wild Type (P07949 29-1114): as the sequence (P07949 29-1114 G810S) above, with S782G counted along it
Sequence of RET kinase V804M (P07949 29-1114 V804M): as the sequence (P07949 29-1114 G810S) above, with V776M, S782G counted along it

Compound	IC50 [1]	IC50 [2]	IC50 [3]	IC50 [4]	IC50 [5]
CC(C)c1cc(-c2nn(C(C)C)c3ncnc(N)c23)n(C2CCCCO2)n1 (stereo not drawn) [Example 20, 1-isopropyl-3-(3-isopropyl-1-(tetrahydro-2H-pyran-2-yl)-1H-pyrazol-5-yl)-1H-pyrazolo[3,4-d]pyrimidin-4-amine]	70.5 nM	46.5 nM	21.1 nM		226 nM
CC(C)n1nc(-c2cc(-c3ccccc3)nn2C2CCCCO2)c2c(N)ncnc21 (stereo not drawn) [Example 24, 1-isopropyl-3-(3-phenyl-1-(tetrahydro-2H-pyran-2-yl)-1H-pyrazol-5-yl)-1H-pyrazolo[3,4-d]pyrimidin-4-amine]	55 nM	9.8 nM	8.7 nM		54.3 nM
CC(C)n1nc(-c2cc(C(F)(F)F)nn2C2CCCCO2)c2c(N)ncnc21 (stereo not drawn) [Example 25, 1-isopropyl-3-(1-(tetrahydro-2H-pyran-2-yl)-3-(trifluoromethyl)-1H-pyrazol-5-yl)-1H-pyrazolo[3,4-d]pyrimidin-4-amine]	48.6 nM	16.3 nM	8.4 nM		79.8 nM
CC(C)n1nc(C2CC2)cc1-c1nn(C(C)C)c2ncnc(N)c12 [Example 27, 3-(3-cyclopropyl-1-isopropyl-1H-pyrazol-5-yl)-1-isopropyl-1H-pyrazolo[3,4-d]pyrimidin-4-amine]	42.9 nM	22.3 nM	11.6 nM		406 nM
Cc1cnn(C2CCCCO2)c1-c1nn(C(C)C)c2ncnc(N)c12 (stereo not drawn) [Example 28, 1-isopropyl-3-(4-methyl-1-(tetrahydro-2H-pyran-2-yl)-1H-pyrazol-5-yl)-1H-pyrazolo[3,4-d]pyrimidin-4-amine]			379 nM	276 nM	
CC(C)n1nc(-c2cnn(C3CC3)c2)c2c(N)ncnc21 [Example 29, 3-(1-cyclopropyl-1H-pyrazol-4-yl)-1-isopropyl-1H-pyrazolo[3,4-d]pyrimidin-4-amine]			61.7 nM		
C=Cc1cc(-c2nn(C(C)C)c3ncnc(N)c23)[nH]n1 [Example 30, 1-isopropyl-3-(3-vinyl-1H-pyrazol-5-yl)-1H-pyrazolo[3,4-d]pyrimidin-4-amine hydrochloride]			65.9 nM		
CC(C)n1nc(-c2cc(C(F)(F)F)[nH]n2)c2c(N)ncnc21 [Example 31, 1-isopropyl-3-(5-(trifluoromethyl)-1H-pyrazol-3-yl)-1H-pyrazolo[3,4-d]pyrimidin-4-amine dihydrochloride]			156 nM		
CC(=O)n1nc(-c2nn(C(C)C)c3ncnc(N)c23)cc1C [Example 32, 1-(3-(4-amino-1-isopropyl-1H-pyrazolo[3,4-d]pyrimidin-3-yl)-5-methyl-1H-pyrazol-1-yl)ethan-1-one]			44.7 nM		
CC(C)n1nc(-c2nccn2C)c2c(N)ncnc21 [Example 33, 1-isopropyl-3-(1-methyl-1H-imidazol-2-yl)-1H-pyrazolo[3,4-d]pyrimidin-4-amine]			65.9 nM		
CC(C)n1nc(-n2cc(C3CC3)cn2)c2c(N)ncnc21 [Example 34, 3-(4-cyclopropyl-1H-pyrazol-1-yl)-1-isopropyl-1H-pyrazolo[3,4-d]pyrimidin-4-amine]			37.3 nM		

The next compounds have a lower IC50 [3] than those just listed; values first:

IC50 [1]	IC50 [2]	IC50 [3]	IC50 [4]	IC50 [5]	Compound
12.5 nM	12.2 nM	7.1 nM	52.5 nM	46.6 nM	CC(C)n1nc(-c2noc(C3CC3)c2-c2cnn(C)c2)c2c(N)ncnc21 [Example 3, 3-(5-cyclopropyl-4-(1-methyl-1H-pyrazol-4-yl)isoxazol-3-yl)-1-isopropyl-1H-pyrazolo[3,4-d]pyrimidin-4-amine]
13.5 nM	7.6 nM	5.2 nM	28.8 nM	37.3 nM	CC(C)n1nc(-c2noc(C3CC3)c2C2=CCOCC2)c2c(N)ncnc21 [Example 4, 3-(5-cyclopropyl-4-(3,6-dihydro-2H-pyran-4-yl)isoxazol-3-yl)-1-isopropyl-1H-pyrazolo[3,4-d]pyrimidin-4-amine]
8.4 nM	8.7 nM	7.1 nM	52.2 nM	38.9 nM	CC(C)n1nc(-c2noc(C3CC3)c2-c2cccnc2)c2c(N)ncnc21 [Example 7, 3-(5-cyclopropyl-4-(pyridin-3-yl)isoxazol-3-yl)-1-isopropyl-1H-pyrazolo[3,4-d]pyrimidin-4-amine]
3.9 nM	3.9 nM	2.9 nM	29 nM	20.6 nM	CC(C)n1nc(-c2noc(C3CC3)c2-c2ccncc2)c2c(N)ncnc21 [Example 8, 3-(5-cyclopropyl-4-(pyridin-4-yl)isoxazol-3-yl)-1-isopropyl-1H-pyrazolo[3,4-d]pyrimidin-4-amine]
11.4 nM	4.1 nM	5.3 nM	15.1 nM	24.3 nM	CC(C)n1nc(-c2noc(C3CC3)c2I)c2c(N)ncnc21 [Example 12, 3-(5-cyclopropyl-4-iodoisoxazol-3-yl)-1-isopropyl-1H-pyrazolo[3,4-d]pyrimidin-4-amine]
31.3 nM	14.2 nM	8 nM		87.4 nM	CC(C)n1nc(-c2cc(C3CC3)nn2C2CCCCC2)c2c(N)ncnc21 [Example 26, 3-(1-cyclohexyl-3-cyclopropyl-1H-pyrazol-5-yl)-1-isopropyl-1H-pyrazolo[3,4-d]pyrimidin-4-amine]
		7.2 nM			CC(C)n1nc(-c2c[nH]nn2)c2c(N)ncnc21 [Example 35, 1-isopropyl-3-(1H-1,2,3-triazol-4-yl)-1H-pyrazolo[3,4-d]pyrimidin-4-amine]
